# Values quoted from earlier work in patent US6340756B1, “Process for preparing a 2-(2-amino-1, 6-dihydro-6-oxo-purin-9-yl)methoxy-1,3-propanediol derivative” (Syntex (U.S.A.) Inc., priority 1996, dated 2002).
# Assays:
# [1] = rats, urinary recovery of acyclovir, Beauchamp et al. 1992
# [2] = EP 0 308 065 A2
# [3] = EP 0 694 547 A
# [4] = EP 0 694 547 A; remark: listed apart in the source
SMILES,amount of the parent drug (acyclovir) in the urine compared with acyclovir itself [1],other results
NCC(=O)OCCOCn1cnc2c(=O)[nH]c(N)nc21 [glycyl],greater amounts of the parent drug in the urine than acyclovir itself,
"CC(N)C(=O)OCCOCn1cnc2c(=O)[nH]c(N)nc21 (racemic) [D,L-alanyl]",greater amounts of the parent drug in the urine than acyclovir itself,
CC[C@H](C)[C@H](N)C(=O)OCCOCn1cnc2c(=O)[nH]c(N)nc21 [L-isoleucyl],greater amounts of the parent drug in the urine than acyclovir itself,
Nc1nc2c(ncn2COCCOC(=O)C2CCCN2)c(=O)[nH]1 [L-prolyl],greater amounts of the parent drug in the urine than acyclovir itself,
CC(C)[C@H](N)C(=O)OCCOCn1cnc2c(=O)nc(N)[nH]c21 [valine ester of acyclovir],,"absorption from the gut after oral administration, compared with other esters and acyclovir [2]: large increase in absorption"
C[C@H](N)C(=O)OCCOCn1cnc2c(=O)[nH]c(N)nc21 [L-alanyl],greater amounts of the parent drug in the urine than acyclovir itself,
CSCC[C@H](N)C(=O)OCCOCn1cnc2c(=O)[nH]c(N)nc21 [L-methionyl],greater amounts of the parent drug in the urine than acyclovir itself,
"CC(C)[C@@H](N)C(=O)OCC(CO)OCn1cnc2c(O)nc(N)nc21 (stereo partly drawn) [2-(2-amino-1,6-dihydro-6-oxo-purin-9-yl)methoxy-3-hydroxy-1-propyl-L-valinate]",,toxicity [3]: low toxicity; oral absorption [4]: improved oral absorption
CC[C@H](N)C(=O)OCCOCn1cnc2c(=O)[nH]c(N)nc21,greater amounts of the parent drug in the urine than acyclovir itself,
"CC(C)C(N)C(=O)OCCOCn1cnc2c(=O)[nH]c(N)nc21 (racemic) [D,L-valyl]",greater amounts of the parent drug in the urine than acyclovir itself,
CC(C)[C@H](N)C(=O)OCCOCn1cnc2c(=O)nc(N)[nH]c21 [L-valyl],greater amounts of the parent drug in the urine than acyclovir itself,rank as prodrug among the esters investigated ([1]; eighteen amino acid esters): best prodrug
CCC(C)C(N)C(=O)OCCOCn1cnc2c(=O)[nH]c(N)nc21 (racemic) [DL-isoleucyl],greater amounts of the parent drug in the urine than acyclovir itself,
